Experimental data from PubChem BioAssay (NCI).
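Assay format: 96-well plates, 48-hour exposure. TGI is the concentration that stops growth completely.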

Legend:
Experiment in all cases: inhibition of tumour cell growth, NCI panel, 48 h
DMS 273 small cell lung = test system: DMS 273 small cell lung
A498 renal = test system: A498 renal
K-562 leukemia = test system: K-562 leukemia
SNB-19 CNS = test system: SNB-19 CNS
HOP-62 NSCLC = test system: HOP-62 NSCLC
NCI-H522 lung = test system: NCI-H522 lung
SF-268 CNS = test system: SF-268 CNS
SK-MEL-28 melanoma = test system: SK-MEL-28 melanoma
786-0 renal = test system: 786-0 renal
SNB-75 CNS = test system: SNB-75 CNS
SR leukemia = test system: SR leukemia
SNB-78 CNS = test system: SNB-78 CNS
SF-539 CNS = test system: SF-539 CNS
U251 CNS = test system: U251 CNS
HT29 colon = test system: HT29 colon
SK-MEL-5 melanoma = test system: SK-MEL-5 melanoma
OVCAR-5 ovarian = test system: OVCAR-5 ovarian
MOLT-4 leukemia = test system: MOLT-4 leukemia
LOX IMVI melanoma = test system: LOX IMVI melanoma
CCRF-CEM leukemia = test system: CCRF-CEM leukemia
RPMI-8226 leukemia = test system: RPMI-8226 leukemia
ACHN renal = test system: ACHN renal
SN12C renal = test system: SN12C renal
OVCAR-8 ovarian = test system: OVCAR-8 ovarian
NCI-H226 lung = test system: NCI-H226 lung
HCT-15 colon = test system: HCT-15 colon
IGROV1 ovarian = test system: IGROV1 ovarian
DLD-1 colon = test system: DLD-1 colon
HOP-18 NSCLC = test system: HOP-18 NSCLC
NCI-H23 lung = test system: NCI-H23 lung
UACC-62 melanoma = test system: UACC-62 melanoma
A549 NSCLC = test system: A549 NSCLC
NCI-H460 lung = test system: NCI-H460 lung
EKVX NSCLC = test system: EKVX NSCLC
KM12 colon = test system: KM12 colon
M19-MEL melanoma = test system: M19-MEL melanoma
HOP-92 NSCLC = test system: HOP-92 NSCLC
HL-60(TB) leukemia = test system: HL-60(TB) leukemia
SW-620 colon = test system: SW-620 colon
KM20L2 colon = test system: KM20L2 colon
M14 melanoma = test system: M14 melanoma
LXFL 529 NSCLC = test system: LXFL 529 NSCLC
DMS 114 small cell lung = test system: DMS 114 small cell lung
OVCAR-4 ovarian = test system: OVCAR-4 ovarian
UACC-257 melanoma = test system: UACC-257 melanoma
SF-295 CNS = test system: SF-295 CNS
HCT-116 colon = test system: HCT-116 colon
COLO 205 colon = test system: COLO 205 colon
TK-10 renal = test system: TK-10 renal
MALME-3M melanoma = test system: MALME-3M melanoma
SK-MEL-2 melanoma = test system: SK-MEL-2 melanoma
OVCAR-3 ovarian = test system: OVCAR-3 ovarian
RXF 393 renal = test system: RXF 393 renal
UO-31 renal = test system: UO-31 renal
CAKI-1 renal = test system: CAKI-1 renal
HCC-2998 colon = test system: HCC-2998 colon
SK-OV-3 ovarian = test system: SK-OV-3 ovarian

Measured: TGI

COc1ccc(/C=C/C(=O)c2cc(C(=O)O)c(OC)cc2OC)cc1OC
not listed: TK-10 renal | MALME-3M melanoma | SK-MEL-2 melanoma | OVCAR-3 ovarian | RXF 393 renal | UO-31 renal | CAKI-1 renal | HCC-2998 colon | SK-OV-3 ovarian
> 100 µM: all other assays above

CC(=O)NC(CCCN(Cc1ccccc1)C(=O)NCCCl)C(=O)NCc1ccccc1 (stereo not given)
> 100 µM: all assays above
